IC50 data for 36 compounds are collected here from patent US20200308170A1, “KRAS G12C INHIBITORS” (Mirati Therapeutics, Inc., priority 2017, published 2020).

Chain of KRas G12C (P01116 1-188 isoform P01116-2 G12C): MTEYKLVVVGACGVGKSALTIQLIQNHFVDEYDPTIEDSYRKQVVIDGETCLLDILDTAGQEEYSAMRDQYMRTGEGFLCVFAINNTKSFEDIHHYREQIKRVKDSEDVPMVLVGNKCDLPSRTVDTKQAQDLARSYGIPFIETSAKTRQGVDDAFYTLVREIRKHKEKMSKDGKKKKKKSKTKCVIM

This experiment has as its target KRas G12C (Homo sapiens, UniProt P01116, G12C). The experiment can be described thus: Inhibition of KRas G12C in NCI-H358 cells measured by phosphorylated ERK (Phospho-ERK). It counts as cell-based. The following applies: 3 hours, 4 parameter fit, read-out: IC50 (pERK(Thr202/Tyr204) signal normalized with GAPDH). How it is done:
Cells were plated in poly-D-Lysine coated 96-well plates at a concentration of 50,000 cells/well and allowed to attach for 8-12 hours. Diluted compounds were then added at a final concentration of 0.5% DMSO. After 3 hours, the medium was removed, 150 μL of 4% formaldehyde was added and the plates were incubated for 20 minutes. The plates were washed with PBS, and permeabilized using 150 μL of ice cold 100% methanol for 10 minutes. Non-specific antibody binding to the plates was blocked using 100 μL Licor Blocking Buffer (Li-Cor Biotechnology, Lincoln Nebr.) for 1 hour at room temperature. Positive control samples and samples lacking cells were parallel processed with test samples as standards.
The amount Phospho-ERK was determined using an antibody specific for the phosphorylated form of ERK and compared to the amount of GAPDH. […] The plates were incubated for 2 hours at room temperature. The plates were washed with PBS+0.05% Tween 20.
Secondary antibodies used to visualize primary antibodies were added as follows: Anti-rabbit-680 diluted 1:1000 and Anti-mouse-800 diluted 1:1000 in Licor Block+0.05% Tween 20 and incubated for 1 hour at room temperature. The plates were washed with PBS+0.05% Tween 20. A 100 μL aliquot of PBS was added to each well and the plates were read on a LICOR AERIUS plate reader.
The pERK(Thr202/Tyr204) signal was normalized with the GAPDH signal and percent of DMSO control values were calculated. IC50 values were generated using a 4 parameter fit of the dose response curve.
Take `C=C(F)C(=O)N1CCN(c2nc(OCC3CCN3C(C)C)nc3c2CCN(c2cccc4ccc(F)c(Cl)c24)C3)C[C@@H]1CC#N` (stereo partly drawn) [Example 178]: the IC50 fell in the range of 0.0001 to 1 µM. To `C=C(F)C(=O)N1CCN(c2nc(OC3CN(C)C3)nc3c2CCN(c2cccc4ccc(F)c(Cl)c24)C3)C[C@@H]1CC#N` [Example 168] belongs 1 to 10 µM; to `C=C(F)C(=O)N1CCN(c2nc(OC[C@@H]3CC(F)(F)CN3C)nc3c2CCN(c2cccc4ccc(F)c(Cl)c24)C3)C[C@@H]1CC#N` [Example 169], 0.0001 to 1 µM; to `C=C(F)C(=O)N1CCN(c2nc(OCC34CCCN3CCC4)nc3c2CCN(c2cccc4cccc(Cl)c24)C3)C[C@@H]1CC#N` [Example 105, (S)-2-(4-(7-(8-chloronaphthalen-1-yl)-2-((tetrahydro-1H-pyrrolizin-7a(5H)-yl)methoxy)-5,6,7,8-tetrahydropyrido[3,4-d]pyrimidin-4-yl)-1-(2-fluoroacryloyl)piperazin-2-yl)acetonitrile], 0.0001 to 1 µM. Regarding `C=C(F)C(=O)N1CCN(c2nc(OCC3(CC)CCCN3C)nc3c2CCN(c2cccc4ccc(F)c(Cl)c24)C3)C[C@@H]1CC#N` (stereo partly drawn) [Example 175], the IC50 fell in the range of 0.0001 to 1 µM.

Consider `C=C(F)C(=O)N1CCN(c2nc(OCCc3nccn3C)nc3c2CCN(c2cccc4ccc(F)c(Cl)c24)C3)C[C@@H]1CC#N` [Example 191], for which the IC50 was in the range of 0.0001 to 1 µM. Under `C=C(F)C(=O)N1CCN(c2nc(OCC3N(C)CC3(C)C)nc3c2CCN(c2cccc4ccc(F)c(Cl)c24)C3)C[C@@H]1CC#N` (stereo partly drawn) [Example 187] stands 0.0001 to 1 µM; under `C=C(F)C(=O)N1CCN(c2nc(OC[C@@H]3CCCN3C)nc3c2CCN(c2cccc4ccc(F)c(C)c24)C3)C[C@@H]1CC#N` [Example 131, 2-((S)-4-(7-(7-fluoro-8-methylnaphthalen-1-yl)-2-(((S)-1-methylpyrrolidin-2-yl)methoxy)-5,6,7,8-tetrahydropyrido[3,4-d]pyrimidin-4-yl)-1-(2-fluoroacryloyl)piperazin-2-yl)acetonitrile], 0.0001 to 1 µM. In the case of `C=C(F)C(=O)N1CCN(c2nc(OCCNCC(F)F)nc3c2CCN(c2cccc4ccc(F)c(Cl)c24)C3)C[C@@H]1CC#N` [Example 211, (S)-2-(4-(7-(8-chloro-7-fluoronaphthalen-1-yl)-2-(2-((2,2-difluoroethyl)amino)ethoxy)-5,6,7,8-tetrahydropyrido[3,4-d]pyrimidin-4-yl)-1-(2-fluoroacryloyl)piperazin-2-yl)acetonitrile], the IC50 was 0.0001 to 1 µM. Under `C=C(F)C(=O)N1CCN(c2nc(OCC3(C)CCCN3C)nc3c2CCN(c2cccc4ccc(F)c(Cl)c24)C3)C[C@@H]1CC#N` (stereo partly drawn) [Example 139, 2-((2S)-4-(7-(8-chloro-7-fluoronaphthalen-1-yl)-2-((1,2-dimethylpyrrolidin-2-yl)methoxy)-5,6,7,8-tetrahydropyrido[3,4-d]pyrimidin-4-yl)-1-(2-fluoroacryloyl)piperazin-2-yl)acetonitrile] stands 0.0001 to 1 µM.

For `C=C(F)C(=O)N1CCN(c2nc(OC[C@@H]3C[C@@H](OC)CN3)nc3c2CCN(c2cccc4ccc(F)c(Cl)c24)C3)C[C@@H]1CC#N` [Example 210, 2-((S)-4-(7-(8-chloro-7-fluoronaphthalen-1-yl)-2-(((2S,4R)-4-methoxypyrrolidin-2-yl)methoxy)-5,6,7,8-tetrahydropyrido[3,4-d]pyrimidin-4-yl)-1-(2-fluoroacryloyl)piperazin-2-yl)acetonitrile], the IC50 fell in the range of 0.0001 to 1 µM. To `C=C(F)C(=O)N1CCN(c2nc(OC[C@@H]3CCCN3C)nc3c2CCN(c2cccc4ccc(F)c(F)c24)C3)C[C@@H]1CC#N` [Example 136] belongs 0.0001 to 1 µM; to `C=C(F)C(=O)N1CCN(c2nc(OCC3COCCO3)nc3c2CCN(c2cccc4ccc(F)c(Cl)c24)C3)C[C@@H]1CC#N` (stereo partly drawn) [Example 201], 0.0001 to 1 µM. Under `C=C(F)C(=O)N1CCN(c2nc(OCC34CCCN3C[C@H](F)C4)nc3c2CCN(c2cccc4ccc(F)c(Cl)c24)C3)C[C@@H]1CC#N` (stereo partly drawn) [Example 156] stands 0.0001 to 1 µM; under `C=C(F)C(=O)N1CCN(c2nc(OCC34CCCN3C(C)CC4)nc3c2CCN(c2cccc4ccc(F)c(Cl)c24)C3)C[C@@H]1CC#N` (stereo partly drawn) [Example 186], 0.0001 to 1 µM; under `C=C(F)C(=O)N1CCN(c2nc(OCC3CCC(C)(C)N3C)nc3c2CCN(c2cccc4ccc(F)c(Cl)c24)C3)C[C@@H]1CC#N` (stereo partly drawn) [Example 199], 0.0001 to 1 µM. As to `C=C(F)C(=O)N1CCN(c2nc(OCC34CCCN3CCC4)nc3c2CCN(c2cccc4cccc(Br)c24)C3)C[C@@H]1CC#N` [Example 143], the IC50 was 0.0001 to 1 µM. Under `C=C(F)C(=O)N1CCN(c2nc(OCC34CCCN3CCC4)nc3c2CCN(c2cccc(C)c2C(F)(F)F)C3)C[C@@H]1CC#N` [Example 144] stands 0.0001 to 1 µM; under `COC/C=C/C(=O)N1CCN(c2nc(OC[C@@H]3CC(F)(F)CN3C)nc3c2CCN(c2cccc4cccc(C)c24)C3)C[C@@H]1CC#N` [Example 60, 2-((S)-4-(2-(((S)-4,4-difluoro-1-methylpyrrolidin-2-yl)methoxy)-7-(8-methylnaphthalen-1-yl)-5,6,7,8-tetrahydropyrido[3,4-d]pyrimidin-4-yl)-1-((E)-4-methoxybut-2-enoyl)piperazin-2-yl)acetonitrile], 0.0001 to 1 µM; under `C=C(F)C(=O)N1CCN(c2nc(O[C@@H]3CCCC[C@H]3N(C)C)nc3c2CCN(c2cccc4ccc(F)c(Cl)c24)C3)C[C@@H]1CC#N` [Example 182], 1 to 10 µM. To `C=C(F)C(=O)N1CCN(c2nc(OCC(C)N3CCOCC3)nc3c2CCN(c2cccc4ccc(F)c(Cl)c24)C3)C[C@@H]1CC#N` (stereo partly drawn) [Example 177] belongs 0.0001 to 1 µM. To `C=C(F)C(=O)N1CCN(c2nc(OCCCN3C[C@@H]4C[C@H]3CO4)nc3c2CCN(c2cccc4ccc(F)c(Cl)c24)C3)C[C@@H]1CC#N` [Example 198] belongs 0.0001 to 1 µM; to `C=C(F)C(=O)N1CCN(c2nc(OCC34CCCN3CCC4)nc3c2CCN(c2cccc(Cl)c2C(F)(F)F)C3)C[C@@H]1CC#N` [Example 141], 0.0001 to 1 µM; to `C=C(F)C(=O)N1CCN(c2nc(OCCN(CC)CC)nc3c2CCN(c2cccc4ccc(F)c(Cl)c24)C3)C[C@@H]1CC#N` [Example 159], 0.0001 to 1 µM. With `C=C(F)C(=O)N1CCN(c2nc(OCCN(C)CC(F)(F)F)nc3c2CCN(c2cccc4ccc(F)c(Cl)c24)C3)C[C@@H]1CC#N` [Example 148, (S)-2-(4-(7-(8-chloro-7-fluoronaphthalen-1-yl)-2-(2-(methyl(2,2,2-trifluoroethyl)amino)ethoxy)-5,6,7,8-tetrahydropyrido[3,4-d]pyrimidin-4-yl)-1-(2-fluoroacryloyl)piperazin-2-yl)acetonitrile], the IC50 is 1 to 10 µM. As for `C=C(F)C(=O)N1CCN(c2nc(OC3CCCN(C(C)C)C3)nc3c2CCN(c2cccc4ccc(F)c(Cl)c24)C3)C[C@@H]1CC#N` (stereo partly drawn) [Example 152], the IC50 was in the range of 1 to 10 µM. Under `C=C(F)C(=O)N1CCN(c2nc(O[C@H]3CCC[C@@H]3N(C)C)nc3c2CCN(c2cccc4ccc(F)c(Cl)c24)C3)C[C@@H]1CC#N` [Example 153] stands 1 to 10 µM; under `C=C(F)C(=O)N1CCN(c2nc(OC3CCN(C(C)C)C3)nc3c2CCN(c2cccc4ccc(F)c(Cl)c24)C3)C[C@@H]1CC#N` (stereo partly drawn) [Example 150], 0.0001 to 1 µM; under `C=C(F)C(=O)N1CCN(c2nc(OC[C@@H]3COCCN3Cc3ccccc3)nc3c2CCN(c2cccc4ccc(F)c(Cl)c24)C3)C[C@@H]1CC#N` [Example 167], 0.0001 to 1 µM. Under `C=C(F)C(=O)N1CCN(c2nc(OCC34CCCN3CCC4)nc3c2CCN(c2cccc4ccc(F)c(Cl)c24)C3)C[C@@H]1CC#N` [Example 138, (S)-2-(4-(7-(8-chloro-7-fluoronaphthalen-1-yl)-2-((tetrahydro-1H-pyrrolizin-7a(5H)-yl)methoxy)-5,6,7,8-tetrahydropyrido[3,4-d]pyrimidin-4-yl)-1-(2-fluoroacryloyl)piperazin-2-yl)acetonitrile] stands 0.0001 to 1 µM; under `C=C(F)C(=O)N1CCN(c2nc(OCC3CN(C)CCC34CN(C)C4)nc3c2CCN(c2cccc4ccc(F)c(Cl)c24)C3)C[C@@H]1CC#N` (stereo partly drawn) [Example 162], 0.0001 to 1 µM; under `C=C(F)C(=O)N1CCN(c2nc(OCC34CCCN3C(=O)CC4)nc3c2CCN(c2cccc4ccc(F)c(Cl)c24)C3)C[C@@H]1CC#N` (stereo partly drawn) [Example 145], 1 to 10 µM. Under `C=C(F)C(=O)N1CCN(c2nc(OC[C@@H]3CCCN3C)nc3c2CCN(c2cccc4c2CCC4)C3)C[C@@H]1CC#N` [Example 135] stands 0.0001 to 1 µM. As to `C=C(F)C(=O)N1CCN(c2nc(OCC3CCCO3)nc3c2CCN(c2cccc4ccc(F)c(Cl)c24)C3)C[C@@H]1CC#N` (stereo partly drawn) [Example 176], the IC50 fell in the range of 0.0001 to 1 µM. To `C=C(F)C(=O)N1CCN(c2nc(OC3CN(CCC#N)C3)nc3c2CCN(c2cccc4ccc(F)c(Cl)c24)C3)C[C@@H]1CC#N` [Example 157] belongs 1 to 10 µM; to `C=C(F)C(=O)N1CCN(c2nc(OC[C@@H]3CCCN3C(C)C)nc3c2CCN(c2cccc4ccc(F)c(Cl)c24)C3)C[C@@H]1CC#N` [Example 147, 2-((S)-4-(7-(8-chloro-7-fluoronaphthalen-1-yl)-2-(((S)-1-isopropylpyrrolidin-2-yl)methoxy)-5,6,7,8-tetrahydropyrido[3,4-d]pyrimidin-4-yl)-1-(2-fluoroacryloyl)piperazin-2-yl)acetonitrile], 0.0001 to 1 µM.
